One assay relates to “S. pettenkoferi”. Also noted: key: “R”, resistant; “S”, susceptible; “v”, variable. Particulars: Trulzsch et al. (2002); cited from earlier work.
A further assay concerns Unknowns (n = 12). The assay can be described thus: Novobiocin and polymyxin B resistance, summary of isolates. Format: cell-based, Staphylococcus pseudolugdunensis. Particulars: for Summary: resistance percentage: Unknowns (n = 12). The text has this:
(§1) Both clinical isolates and reference isolates were first identified by the conventional method based on colony size and pigment; anaerobic and aerobic growth; the presence of clumping factor, Staphaurex latex agglutination (Murex Diagnostics Inc., Norcross, Ga.), hemolysins, oxidase, ODC, urease, and PYR (De Paulis, A. N., et al (2003) J. Clin. Microbiol. 41: 1219-24, 16, 25, 33). Species identification further confirmed by using an API STAPH (bioMerieux Vitek, Inc., Hazelwood, Mo.) according to the manufacturer's instructions (Brun, Y., et al (1990) J. Clin. Microbiol. 8: 503-8; Chapin, K., and M. Musgnug (2003) J. Clin. Microbiol. 41: 4324-7; Gemmell, C. G., and J. E. Dawson (1982) J. Clin. Microbiol. 16:874-7; Heikens, E., et al (2005) J. Clin. Microbiol. 43: 2286-90; Layer, F., B. et al (2006) J. Clin. Microbiol. 44: 2824-30.). PYR and ODC were performed with S. aureus (ATCC#25923) and S. lugdunensis (ATCC#700328) included as negative and positive controls, respectively. Biochemical tests included acid production from D-glucose, D-trehalose, D-mannitol, D-mannose, xylose, maltose, lactose, sucrose, N-acetylglucosamine, raffinose, D-fructose, D-melibiose, xylitol, and α-methyl-glucosamine; nitrate reduction; and alkaline phosphatase, arginine dihydrolase, urease, and acetoin production. […] Biochemical reactions, including catalase, coagulase, D-glucose, D-mannitol, D-fructose, galactose, lactose, maltose, sucrose, D-trehalose, xylose, nitrate reduction, arginine dihydrolase, urease, and novobiocin and polymyxin B resistance, were further confirmed at the Tennessee Department of Health Laboratory Services in Nashville, Tenn., using phenotypic methods recommended by the United States Centers for Disease Control (CDC), Atlanta, Ga. (Kloose, W. E. and T. L. Bannerman (1995) Staphylococcus and Micrococcus, p. 282-298, in P. R. Murray et al. (eds.) Manual of Clinical Microbiology, 6th ed., American Society for Microbiology Press, Washington, D.C.; Kloose, W. E. and K. H. Schleifer (1975) J. Clin. Microbiol. 1: 82-88).

The subject of assay [1] is isolate B287. Nature of the assay: Novobiocin and polymyxin B resistance, phenotypic methods. Also noted: key: “R”, resistant; “S”, susceptible; “v”, variable. It counts as cell-based, Staphylococcus pseudolugdunensis.
From the text: as §1

For assay [2], the system named is isolate B277. The description is as above. Format: cell-based, Staphylococcus pseudolugdunensis. More on the design: key: “R”, resistant; “S”, susceptible; “v”, variable.
From the text: as §1

For assay [3], the system named is isolate B292. The assay is described as above. Also noted: key: “R”, resistant; “S”, susceptible; “v”, variable. Format: cell-based, Staphylococcus pseudolugdunensis.
From the text: as §1

Assay [4] has as its system isolate B334. The assay is described as above. Format: cell-based, Staphylococcus pseudolugdunensis. Also noted: key: “R”, resistant; “S”, susceptible; “v”, variable.
From the text: as §1

Assay [5] concerns isolate B837. The description is as above. Format: cell-based, Staphylococcus pseudolugdunensis. Also noted: key: “R”, resistant; “S”, susceptible; “v”, variable.
From the text: as §1

The next assay has as its system S. lugdunensis. More on the design: key: “R”, resistant; “S”, susceptible; “v”, variable. Conditions: cited from earlier work.
The subject of the next assay is S. epidermidis. More on the design: key: “R”, resistant; “S”, susceptible; “v”, variable. Particulars: cited from earlier work.
Another assay has as its system S. auricularis. More on the design: key: “R”, resistant; “S”, susceptible; “v”, variable. Conditions: cited from earlier work.
For assay [6], the system named is isolate B354. The assay can be described thus: Disc diffusion antimicrobial susceptibility testing. Format: cell-based, Staphylococcus pseudolugdunensis. As to the method:
(§2) In vitro antimicrobial susceptibility testing for amoxicillin-clavulanate, cefazolin, clindamycin, erythromycin, gentamicin, levofloxacin, minocycline, penicillin, rifampin, trimethoprim/sulfamethoxazole (SXT) and vancomycin was determined by a disc diffusion method in accordance with Clinical and Laboratory Standards Institute guidelines (CLSI Performance standards for antimicrobial disk susceptibility tests; Approved standard, 9th ed. (2006) Clinical and Laboratory Standards Institute, Wayne, Pa.).
(A growth-free zone around the sample is the usual read-out of agar diffusion tests.)

The next assay relates to isolate B333. Described as above. Format: cell-based, Staphylococcus pseudolugdunensis. As to the method: as §2
Assay [7] has as its system isolate B060. The description is as above. It counts as cell-based, Staphylococcus pseudolugdunensis. As to the method: as §2
The subject of assay [8] is isolate B006. Described as above. Format: cell-based, Staphylococcus pseudolugdunensis. As to the method:
as §2

In assay [9] the test system is isolate B287. The description is as above. Format: cell-based, Staphylococcus pseudolugdunensis. Conditions: isolate 8287. As to the method:
as §2

Assay [10] deals with isolate B277. The assay is described as above. Conditions: isolate 8277. It counts as cell-based, Staphylococcus pseudolugdunensis. As to the method: as §2
The test system of assay [11] is isolate B230. Described as above. It counts as cell-based, Staphylococcus pseudolugdunensis. As to the method:
as §2

For assay [12], the system named is isolate B292. Described as above. It counts as cell-based, Staphylococcus pseudolugdunensis. Particulars: isolate 13292. As to the method: as §2
Assay [13] concerns isolate B334. The assay is described as above. Format: cell-based, Staphylococcus pseudolugdunensis. As to the method:
as §2

In assay [14] the test system is isolate B837. The assay is described as above. Format: cell-based, Staphylococcus pseudolugdunensis. As to the method:
as §2

In assay [15] the test system is isolate B715. The assay is described as above. It counts as cell-based, Staphylococcus pseudolugdunensis. Particulars: isolate 13715. As to the method: as §2
Assay [16] has as its system isolate B739. The description is as above. It counts as cell-based, Staphylococcus pseudolugdunensis. Particulars: isolate 8739. As to the method:
as §2

A further assay has as its system 12 isolates. Nature of the assay: Disc diffusion antimicrobial susceptibility testing, all isolates. Format: cell-based, Staphylococcus pseudolugdunensis. As to the method: as §2
For the next assay, the system named is isolates B230 and B333. The assay can be described thus: Clinical case of intravenous line-associated infection. Format: in vivo, human. Particulars: patient with intravenous line-associated infection, line removed. As to the method: The relatedness of these 12 ODC/PYR-positive CoNS was further analyzed by pulsed field gel electrophoresis (PFGE). All isolates were unrelated, except for two isolates (B230 and B333) which were recovered from the same patient over a 16-day interval. […] Vancomycin was administered and the line removed.
Medical records of the 11 patients from whom these isolates were recovered were reviewed and the demographic and clinical information are listed in Table 3. Two isolates (B230 and B333), which were recovered from the same patient over a 16-day interval, were considered to be the pathogen that caused an intravenous line-associated infection. The remaining 10 isolates were considered to be contaminants. Antibiotics, including vancomycin, were administered in 6 (54.5%) cases, including one case in which the two isolates were considered pathogens and in 5 of 10 cases in which the isolates were considered contaminants (Table 3).

Assay [17] relates to isolate B354. The assay can be described thus: Novobiocin and polymyxin B resistance, phenotypic methods. Also noted: key: “R”, resistant; “S”, susceptible; “v”, variable. Format: cell-based, Staphylococcus pseudolugdunensis.
From the text: as §1

The test system of assay [18] is isolate B060. The description is as above. Format: cell-based, Staphylococcus pseudolugdunensis. Also noted: key: “R”, resistant; “S”, susceptible; “v”, variable.
From the text: as §1

Assay [19] relates to isolate B006. Described as above. More on the design: key: “R”, resistant; “S”, susceptible; “v”, variable. It counts as cell-based, Staphylococcus pseudolugdunensis.
From the text: as §1

Assay [20] deals with isolate B230. The description is as above. It counts as cell-based, Staphylococcus pseudolugdunensis. Also noted: key: “R”, resistant; “S”, susceptible; “v”, variable.
From the text: as §1

For assay [21], the system named is isolate B715. The description is as above. More on the design: key: “R”, resistant; “S”, susceptible; “v”, variable. It counts as cell-based, Staphylococcus pseudolugdunensis.
From the text: as §1

For assay [22], the system named is isolate B739. The description is as above. It counts as cell-based, Staphylococcus pseudolugdunensis. Also noted: key: “R”, resistant; “S”, susceptible; “v”, variable.
From the text: as §1

On to `CO[C@@H]1[C@@H](OC(N)=O)[C@@H](O)[C@H](Oc2ccc3c(O)c(NC(=O)c4ccc(O)c(CC=C(C)C)c4)c(=O)oc3c2C)OC1(C)C` [Novobiocin], for which the Resistance/Susceptibility result with “S. pettenkoferi” is recorded as “S”; in the assay on isolate B287 [1], “R”; with isolate B277 [2] it was “R”; in the assay on isolate B292 [3], “R”; in the assay on isolate B334 [4], “R”; in the assay with isolate B837 [5], “R”. For the same compound, the Resistance/Susceptibility entry in the assay with S. lugdunensis, with S. epidermidis and in the assay on S. auricularis was “S” in each case. For the same compound, the “Summary: resistance percentage” value in the assay on Unknowns (n = 12) is reported as 42 percentage.
As for `CN[C@H](CC(C)C)C(=O)N[C@H]1C(=O)N[C@@H](CC(N)=O)C(=O)N[C@H]2C(=O)N[C@H]3C(=O)N[C@H](C(=O)N[C@H](C(=O)O)c4cc(O)cc(O)c4-c4cc3ccc4O)[C@H](O)c3ccc(c(Cl)c3)Oc3cc2cc(c3O[C@@H]2O[C@H](CO)[C@@H](O)[C@H](O)[C@H]2O[C@H]2C[C@](C)(N)[C@H](O)[C@H](C)O2)Oc2ccc(cc2Cl)[C@H]1O` [Vancomycin], the Antimicrobial susceptibility result in the assay on isolate B354 [6], with isolate B333, with isolate B060 [7], with isolate B006 [8], in the assay on isolate B287 [9] and in the assay on isolate B277 [10] was “S” each time. Besides, the Antimicrobial susceptibility entry in the assay on isolate B230 [11], in the assay with isolate B292 [12], in the assay on isolate B334 [13], with isolate B837 [14], in the assay with isolate B715 [15] and in the assay with isolate B739 [16] was “S” in each case. In the assay on 12 isolates, the “Susceptibility of all 12 isolates” value is reported as “susceptible”. Also, the Patient outcome in the assay on isolates B230 and B333 is listed as “recovered fully”.
On to Polymyxin B, for which the “Relative resistance of S. pseudolugdunensis to polymyxin B and novobiocin” value in the assay on Unknowns (n = 12) (Staphylococcus pseudolugdunensis bacteria) was “more resistant to polymyxin B than to novobiocin”. In addition, the “Summary: resistance percentage” value in the assay on Unknowns (n = 12) was 8 percentage. Further, the Resistance/Susceptibility entry with isolate B354 [17], in the assay on isolate B060 [18], in the assay on isolate B006 [19], with isolate B287 [1], in the assay on isolate B230 [20] and with isolate B292 [3] was “S” throughout. In addition, the Resistance/Susceptibility result was “S” in the assay with isolate B334 [4]; “R” in the assay on isolate B837 [5]; “S” in the assay with isolate B715 [21]; “S” with isolate B739 [22]; “v” in the assay on S. lugdunensis; “R” with S. epidermidis. Also, the Resistance/Susceptibility result in the assay on S. auricularis is reported as “S”.

The record behind these values is patent US20100240093A1, “Isolated Staphylococcus Pseudolugdunensis” (priority 2006, published 2010).
